Measured values: patent US9957274B2, “Indane inhibitors of EED and methods of their use” (AbbVie Inc., priority 2016, dated 2018)
Read-outs that look alike come from different tables or passages of the source.

Experiments:
EED = EED (Homo sapiens, UniProt O75530); assay: EED TR-FRET Binding Assay (modified LanthaScreen competition assay)
Summary of the method: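 Competition binding in a modified LanthaScreen format, in 20 mM Tris-HCl pH 7.5, 200 mM NaCl, 0.01% Tween-20, 10 uM DTT and 0.05% BSA. Reactions ran 1 hour at 25° C before TR-FRET detection.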

[1] = system: H3K27me3 in OCILY19 cells; assay: H3K27me3 AlphaLISA assay in OCILY19 cells; assay type: cell-based; details: Homo sapiens, OCI-LY19, 144 h, 6 days with compound, read-out: OCILY-19 IC50
Procedure: 5,000 cells were plated into each well of 96-well Corning CellBing cell culture plates and incubated overnight at 37° C. in a humidified CO2 incubator. […] The cell culture plates were then incubated for 6 more days. H3K27me3 AlphaLISA assay was performed on the cell culture samples by using AlphaLISAR® H3K27me3 Cellular Detection Kit (PerkinElmer) and 96-well white half-area plates (PerkinElmer).

Pfeiffer cells = assay: CTG cell viability assay (CellTiter-Glo); assay type: cell-based; details: Homo sapiens, 240 h
Procedure: 1,000 cells were plated into each well of 96-well Corning CellBing cell culture plates and incubated overnight at 37° C. in a humidified CO2 incubator. […] The cell culture plates were then incubated for 10 more days. CTG cell viability assay was performed on the cell culture samples by using CellTiter-Glo® Luminescent Cell Viability Assay Kit (Promega).

[2] = Pfeiffer cells, 10 days with compound, CellTiter-Glo, read-out: Cell Proliferation IC50
[3] = Pfeiffer, read-out: Cell Proliferation IC50 (uM)

EED, sequence (O75530 whole entry): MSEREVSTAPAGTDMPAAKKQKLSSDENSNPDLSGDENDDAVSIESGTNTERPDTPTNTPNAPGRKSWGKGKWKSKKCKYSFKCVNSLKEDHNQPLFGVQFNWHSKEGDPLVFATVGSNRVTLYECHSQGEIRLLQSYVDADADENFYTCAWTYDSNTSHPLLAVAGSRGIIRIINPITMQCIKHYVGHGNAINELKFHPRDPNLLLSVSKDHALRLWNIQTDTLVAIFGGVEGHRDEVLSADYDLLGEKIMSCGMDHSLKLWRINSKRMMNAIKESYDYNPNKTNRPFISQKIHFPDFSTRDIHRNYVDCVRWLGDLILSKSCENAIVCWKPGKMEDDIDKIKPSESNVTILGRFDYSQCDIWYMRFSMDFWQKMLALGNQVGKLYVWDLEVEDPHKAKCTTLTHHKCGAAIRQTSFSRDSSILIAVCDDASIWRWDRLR

| Compound | IC50 (EED) [nM] | IC50 [1] [nM] | IC50 (Pfeiffer cells; [2]) [µM] | IC50 (Pfeiffer cells; [3]) [µM] | IC50 (EED; read-out: TR-FRET Binding) [nM] |
| --- | --- | --- | --- | --- | --- |
| CNC(=O)c1ccc([C@H]2CN(C3CCc4cccc(F)c43)C[C@@H]2N(C)C)cc1 (mixture of isomers) [Example 24, rac-4-[(3S,4R)-4-(dimethylamino)-1-(7-fluoro-2,3-dihydro-1H-inden-1-yl)pyrrolidin-3-yl]-N-methylbenzamide] | 20.5 | 601 | 2.92 |  |  |
| CN(C)[C@H]1CN(C2CCc3ccccc32)C[C@@H]1c1cn(C)c2ccccc12 (stereo partly drawn) [Example 88, (3R,4S)-1-(2,3-dihydro-1H-inden-1-yl)-N,N-dimethyl-4-(1-methyl-1H-indol-3-yl)pyrrolidin-3-amine] | 26.2 | 2440 |  | 3.55 |  |
| CN(C)[C@@H]1CN(C2CCc3cccc(F)c32)C[C@H]1c1ccc(N2CCN(C(=O)CO)CC2)cc1 (mixture of isomers) [Example 52, rac-1-(4-{4-[(3R,4S)-4-(dimethylamino)-1-(7-fluoro-2,3-dihydro-1H-inden-1-yl)pyrrolidin-3-yl]phenyl}piperazin-1-yl)-2-hydroxyethan-1-one] | 1 | 75 | 0.0894 |  |  |
| Cc1cc([C@H]2CN(C3CCc4cccc(F)c43)C[C@@H]2N(C)C)ccc1N1CCN(C)C(=O)C1 (mixture of isomers) [Example 58, rac-4-{4-[(3S,4R)-4-(dimethylamino)-1-(7-fluoro-2,3-dihydro-1H-inden-1-yl)pyrrolidin-3-yl]-2-methylphenyl}-1-methylpiperazin-2-one] | 1.67 | 376 | 0.314 |  |  |
| CN(C)[C@H]1CN(C2CCc3cccc(F)c32)C[C@@H]1c1ccc(S(N)(=O)=O)cc1 (mixture of isomers) [Example 8, rac-4-[(3S,4R)-4-(dimethylamino)-1-(7-fluoro-2,3-dihydro-1H-inden-1-yl)pyrrolidin-3-yl]benzene-1-sulfonamide] | 10.7 | 637 | 1.32 |  |  |
| CN(C)C(=O)c1ccc([C@H]2CN(C3CCc4cccc(F)c43)C[C@@H]2N(C)C)cc1 (mixture of isomers) [Example 26, rac-4-[(3S,4R)-4-(dimethylamino)-1-(7-fluoro-2,3-dihydro-1H-inden-1-yl)pyrrolidin-3-yl]-N,N-dimethylbenzamide] | 2.51 | 1360 | 3.03 |  |  |
| CN(C)C(=O)c1ccc([C@H]2CN(C3CCc4cccc(Cl)c43)C[C@@H]2N(C)C)cc1 (mixture of isomers) [Example 25, rac-4-[(3S,4R)-1-(7-chloro-2,3-dihydro-1H-inden-1-yl)-4-(dimethylamino)pyrrolidin-3-yl]-N,N-dimethylbenzamide] | 18.2 | 1060 | 2.93 |  |  |
| CN(C)[C@H]1CN([C@H]2C[C@H](F)c3cccc(F)c32)C[C@@H]1c1ccc(S(C)(=O)=O)cc1 (mixture of isomers) [Example 32, rac-(3R,4S)-1-[(1S,3S)-3,7-difluoro-2,3-dihydro-1H-inden-1-yl]-4-[4-(methanesulfonyl)phenyl]-N,N-dimethylpyrrolidin-3-amine] | 4.54 | 2110 | 2.81 |  |  |
| CN(C)[C@@H]1CN(C2CCc3cccc(F)c32)C[C@H]1c1ccc(N2CCN(C(=O)C(N)=O)CC2)cc1 (mixture of isomers) [Example 54, rac-2-(4-{4-[(3R,4S)-4-(dimethylamino)-1-(7-fluoro-2,3-dihydro-1H-inden-1-yl)pyrrolidin-3-yl]phenyl}piperazin-1-yl)-2-oxoacetamide] | 1.06 | 99.1 | 0.114 |  |  |
| CN(C)[C@H]1CN(C2CCc3cccc(F)c32)C[C@@H]1c1ccc(C(=O)N2CC[C@H](O)C2)cc1 (mixture of isomers) [Example 40, rac-{4-[(3S,4R)-4-(dimethylamino)-1-(7-fluoro-2,3-dihydro-1H-inden-1-yl)pyrrolidin-3-yl]phenyl}[(3S)-3-hydroxypyrrolidin-1-yl]methanone] | 4.62 | 1080 | 0.941 |  |  |
| CN(C)[C@H]1CN([C@H]2CCc3cccc(F)c32)C[C@@H]1c1cn(C)c2ccccc12 [Example 77, (3R,4S)-1-[(1S)-7-fluoro-2,3-dihydro-1H-inden-1-yl]-N,N-dimethyl-4-(1-methyl-1H-indol-3-yl)pyrrolidin-3-amine] |  | 655 |  | 1.07 | 1.03 |
| Cc1cc([C@H]2CN(C3CCc4cccc(F)c43)C[C@@H]2N(C)C)ccc1C#N (mixture of isomers) [Example 37, rac-4-[(3S,4R)-4-(dimethylamino)-1-(7-fluoro-2,3-dihydro-1H-inden-1-yl)pyrrolidin-3-yl]-2-methylbenzonitrile] | 2.67 | 874 | 2.66 |  |  |
| CC(=O)N1CCN(c2ccc([C@H]3CN(C4CCc5cccc(F)c54)C[C@@H]3N(C)C)cc2)CC1 (mixture of isomers) [Example 44, rac-1-(4-{4-[(3S,4R)-4-(dimethylamino)-1-(7-fluoro-2,3-dihydro-1H-inden-1-yl)pyrrolidin-3-yl]phenyl}piperazin-1-yl)ethan-1-one] | 0.652 | 144 |  | 0.0836 |  |

The next lines start with results.

| IC50 (EED) [nM] | IC50 [1] [nM] | Compound | IC50 (Pfeiffer cells; [2]) [µM] | IC50 (Pfeiffer cells; [3]) [µM] | IC50 (EED; read-out: TR-FRET Binding) [nM] |
| --- | --- | --- | --- | --- | --- |
| 1.05 | 306 | CCS(=O)(=O)N1CCN(C(=O)c2cccc3c([C@H]4CN(C5CCc6cccc(F)c65)C[C@@H]4N(C)C)cn(C)c23)CC1 (mixture of isomers) [Example 130, rac-{3-[(3S,4R)-4-(dimethylamino)-1-(7-fluoro-2,3-dihydro-1H-inden-1-yl)pyrrolidin-3-yl]-1-methyl-1H-indol-7-yl}[4-(ethanesulfonyl)piperazin-1-yl]methanone] | 0.311 |  |  |
| 0.825 | 113 | CN(C)[C@@H]1CN(C2CCc3cccc(F)c32)C[C@H]1c1ccc(N2CCN(S(=O)(=O)c3cn(C)cn3)CC2)cc1 (mixture of isomers) [Example 73, rac-(3S,4R)-1-(7-fluoro-2,3-dihydro-1H-inden-1-yl)-N,N-dimethyl-4-{4-[4-(1-methyl-1H-imidazole-4-sulfonyl)piperazin-1-yl]phenyl}pyrrolidin-3-amine] | 0.0995 |  |  |
| 1.14 | 804 | CN1CCN(c2ccc([C@H]3CN(C4CCc5cccc(F)c54)C[C@@H]3N(C)C)cc2)CC1 (mixture of isomers) [Example 61, rac-(3R,4S)-1-(7-fluoro-2,3-dihydro-1H-inden-1-yl)-N,N-dimethyl-4-[4-(4-methylpiperazin-1-yl)phenyl]pyrrolidin-3-amine] | 0.204 |  |  |
| 0.835 | 334 | CN(C)[C@H]1CN(C2CCc3cccc(F)c32)C[C@@H]1c1ccc(N2CCN(C3CC3)CC2)cc1 (mixture of isomers) [Example 64, rac-(3R,4S)-4-[4-(4-cyclopropylpiperazin-1-yl)phenyl]-1-(7-fluoro-2,3-dihydro-1H-inden-1-yl)-N,N-dimethylpyrrolidin-3-amine] | 0.166 |  |  |
| 1.35 | 282 | CCS(=O)(=O)N1CCN(c2ccc([C@H]3CN(C4CCc5cccc(F)c54)C[C@@H]3N(C)C)cc2C)CC1 (mixture of isomers) [Example 62, rac-(3R,4S)-4-{4-[4-(ethanesulfonyl)piperazin-1-yl]-3-methylphenyl}-1-(7-fluoro-2,3-dihydro-1H-inden-1-yl)-N,N-dimethylpyrrolidin-3-amine] | 0.429 |  |  |
| 2.14 | 220 | CN(C)[C@H]1CN(C2CCc3cccc(F)c32)C[C@@H]1c1cn(C)c2c(C(=O)N3CCN(S(C)(=O)=O)CC3)cccc12 (mixture of isomers) [Example 126, rac-{3-[(3S,4R)-4-(dimethylamino)-1-(7-fluoro-2,3-dihydro-1H-inden-1-yl)pyrrolidin-3-yl]-1-methyl-1H-indol-7-yl}[4-(methanesulfonyl)piperazin-1-yl]methanone] | 0.329 |  |  |
| 1.03 | 241 | CC(=O)N1CCN(C(=O)c2cccc3c([C@H]4CN(C5CCc6cccc(F)c65)C[C@@H]4N(C)C)cn(C)c23)CC1 (mixture of isomers) [Example 128, rac-1-(4-{3-[(3S,4R)-4-(dimethylamino)-1-(7-fluoro-2,3-dihydro-1H-inden-1-yl)pyrrolidin-3-yl]-1-methyl-1H-indole-7-carbonyl}piperazin-1-yl)ethan-1-one] | 0.194 |  |  |
| 31 | 4350 | CN(C)[C@H]1CN(C2CCc3cccc(Cl)c32)C[C@@H]1c1cn(C)c2ccccc12 (stereo partly drawn) [Example 89, (3R,4S)-1-(7-chloro-2,3-dihydro-1H-inden-1-yl)-N,N-dimethyl-4-(1-methyl-1H-indol-3-yl)pyrrolidin-3-amine] | 6.37 |  |  |
| 1.75 | 3220 | CN(C)[C@@H]1CN(C2CCc3cccc(F)c32)C[C@H]1c1ccc(N2CCN(C(=O)CNS(C)(=O)=O)CC2)nc1 (mixture of isomers) [Example 155, rac-N-[2-(4-{5-[(3R,4S)-4-(dimethylamino)-1-(7-fluoro-2,3-dihydro-1H-inden-1-yl)pyrrolidin-3-yl]pyridin-2-yl}piperazin-1-yl)-2-oxoethyl]methanesulfonamide] | 0.395 |  |  |
| 1.07 | 163 | CN(C)C(=O)C(=O)N1CCN(c2ccc([C@@H]3CN(C4CCc5cccc(F)c54)C[C@H]3N(C)C)cc2)CC1 (mixture of isomers) [Example 59, rac-2-(4-{4-[(3R,4S)-4-(dimethylamino)-1-(7-fluoro-2,3-dihydro-1H-inden-1-yl)pyrrolidin-3-yl]phenyl}piperazin-1-yl)-N,N-dimethyl-2-oxoacetamide] | 0.127 |  |  |
